Experimental data taken from publication PMC5218480 (PLoS ONE, 2017).

System: MV-4-11 cells
Assay: Gene expression microarray analysis (Affymetrix PrimeView) and GSEA
Assay type: cell-based, human
Design: RFU PODN (11730768_x_at) / Fold change /veh PODN (11730768_x_at) / RFU LINC00158 (11744669_a_at) / Fold change /veh LINC00158 (11744669_a_at) / RFU DUSP10 (11751237_a_at) / Fold change /veh DUSP10 (11751237_a_at) / RFU ID3 (11757404_x_at) / Fold change /veh ID3 (11757404_x_at) / RFU PLEKHG5 (11737974_s_at) / Fold change /veh PLEKHG5 (11737974_s_at) / RFU LRRC4B (11730491_at) / Fold change /veh LRRC4B (11730491_at) / RFU GIMAP4 (11747438_a_at) / Fold change /veh GIMAP4 (11747438_a_at) / RFU KRT8 (11758183_x_at) / Fold change /veh KRT8 (11758183_x_at) / RFU CNN1 (11734310_a_at) / Fold change /veh CNN1 (11734310_a_at) / RFU VPS37D (11726825_at) / Fold change /veh VPS37D (11726825_at) / RFU C10orf10 (11716522_x_at) / Fold change /veh C10orf10 (11716522_x_at) / RFU KIR2DL2 /// KIR2DL4 /// KIR2DL5A /// KIR2DL5B /// KIR2DS1 /// KIR2DS2 /// KIR2DS3 /// KIR2DS4 /// KIR3DL3 /// KIR3DL3 /// KIR3DS1 (11738374_at) / Fold change /veh KIR2DL2 /// KIR2DL4 /// KIR2DL5A /// KIR2DL5B /// KIR2DS1 /// KIR2DS2 /// KIR2DS3 /// KIR2DS4 /// KIR3DL3 /// KIR3DL3 /// KIR3DS1 (11738374_at) / RFU C1QL1 (11718748_at) / Fold change /veh C1QL1 (11718748_at) / RFU TMPRSS4 (11747572_a_at) / Fold change /veh TMPRSS4 (11747572_a_at) / RFU HAMP (11756126_x_at) / Fold change /veh HAMP (11756126_x_at) / RFU RNFT2 (11725882_a_at) / Fold change /veh RNFT2 (11725882_a_at) / RFU NR4A2 (11747474_a_at) / Fold change /veh NR4A2 (11747474_a_at) / RFU ABCC12 (11746883_a_at) / Fold change /veh ABCC12 (11746883_a_at) / RFU TMEM136 (11760407_x_at) / Fold change /veh TMEM136 (11760407_x_at) / RFU CLDN22 /// WWC2 (11732394_at) / Fold change /veh CLDN22 /// WWC2 (11732394_at) / RFU HLA-DPB1 (11760878_x_at) / Fold change /veh HLA-DPB1 (11760878_x_at) / RFU SPINT1 (11716480_a_at) / Fold change /veh SPINT1 (11716480_a_at) / RFU GAP43 (11754022_s_at) / Fold change /veh GAP43 (11754022_s_at) / RFU A4GNT (11735810_at) / Fold change /veh A4GNT (11735810_at) / RFU PRB3 (11715151_x_at) / Fold change /veh PRB3 (11715151_x_at) / RFU TUBB4B (11761932_at) / Fold change /veh TUBB4B (11761932_at) / RFU CAPN14 (11732068_a_at) / Fold change /veh CAPN14 (11732068_a_at) / RFU TMCC2 (11721928_a_at) / Fold change /veh TMCC2 (11721928_a_at) / RFU IRGQ (11745062_a_at) / Fold change /veh IRGQ (11745062_a_at) / RFU FAM174B (11720279_a_at) / Fold change /veh FAM174B (11720279_a_at) / RFU TMPRSS4 (11748680_a_at) / Fold change /veh TMPRSS4 (11748680_a_at) / RFU FAM212B (11763350_a_at) / Fold change /veh FAM212B (11763350_a_at) / RFU PLEKHG5 (11743358_a_at) / Fold change /veh PLEKHG5 (11743358_a_at) / RFU ZSCAN30 (11745921_a_at) / Fold change /veh ZSCAN30 (11745921_a_at) / RFU CMKLR1 (11741424_a_at) / Fold change /veh CMKLR1 (11741424_a_at) / RFU LOC101060620 /// MAPK8IP1 (11723275_at) / Fold change /veh LOC101060620 /// MAPK8IP1 (11723275_at) / RFU SPTSSB (11747773_x_at) / Fold change /veh SPTSSB (11747773_x_at) / RFU PRSS12 (11739890_at) / Fold change /veh PRSS12 (11739890_at) / RFU BIN1 (11741810_x_at) / Fold change /veh BIN1 (11741810_x_at) / RFU WNT11 (11732464_a_at) / Fold change /veh WNT11 (11732464_a_at) / RFU C10orf10 (11716521_a_at) / Fold change /veh C10orf10 (11716521_a_at) / RFU C5orf56 (11738089_at) / Fold change /veh C5orf56 (11738089_at) / RFU CYB561 (11721691_x_at) / Fold change /veh CYB561 (11721691_x_at) / RFU ANKRD19P (11752326_a_at) / Fold change /veh ANKRD19P (11752326_a_at) / RFU OR2T12 /// OR2T33 /// OR2T8 (11738714_s_at) / Fold change /veh OR2T12 /// OR2T33 /// OR2T8 (11738714_s_at) / RFU VCAN (11748164_a_at) / Fold change /veh VCAN (11748164_a_at) / RFU JSRP1 (11732532_at) / Fold change /veh JSRP1 (11732532_at) / RFU KRTAP10-11 (11738290_x_at) / Fold change /veh KRTAP10-11 (11738290_x_at) / RFU MYO3A (11730013_a_at) / Fold change /veh MYO3A (11730013_a_at) / RFU EBF3 (11725865_a_at) / Fold change /veh EBF3 (11725865_a_at) / RFU CAMK2N1 (11719241_x_at) / Fold change /veh CAMK2N1 (11719241_x_at) / RFU C5orf56 (11738088_a_at) / Fold change /veh C5orf56 (11738088_a_at) / RFU OLFML3 (11715873_a_at) / Fold change /veh OLFML3 (11715873_a_at) / RFU LOC100653217 /// NTM (11731650_a_at) / Fold change /veh LOC100653217 /// NTM (11731650_a_at) / RFU MAPK11 (11762145_a_at) / Fold change /veh MAPK11 (11762145_a_at) / RFU FIZ1 (11724087_x_at) / Fold change /veh FIZ1 (11724087_x_at) / RFU OASL (11726364_x_at) / Fold change /veh OASL (11726364_x_at) / RFU SOX15 (11748057_x_at) / Fold change /veh SOX15 (11748057_x_at) / RFU CD79A (11719716_a_at) / Fold change /veh CD79A (11719716_a_at) / RFU HIST1H1D (11736915_at) / Fold change /veh HIST1H1D (11736915_at) / RFU CASKIN2 (11723855_a_at) / Fold change /veh CASKIN2 (11723855_a_at) / RFU LOC730098 (11760151_x_at) / Fold change /veh LOC730098 (11760151_x_at) / RFU OR4N2 (11742367_at) / Fold change /veh OR4N2 (11742367_at) / RFU PRRT2 (11749266_a_at) / Fold change /veh PRRT2 (11749266_a_at) / RFU SNX32 (11753110_a_at) / Fold change /veh SNX32 (11753110_a_at) / RFU CDHR5 (11726645_a_at) / Fold change /veh CDHR5 (11726645_a_at) / RFU RCAN1 (11760418_a_at) / Fold change /veh RCAN1 (11760418_a_at) / RFU FAM167A (11723789_a_at) / Fold change /veh FAM167A (11723789_a_at) / RFU FAM26E (11764081_at) / Fold change /veh FAM26E (11764081_at) / RFU ISYNA1 (11749810_s_at) / Fold change /veh ISYNA1 (11749810_s_at) / RFU ACY1 (11761880_at) / Fold change /veh ACY1 (11761880_at) / RFU 11764098_at / Fold change /veh 11764098_at / RFU SAMD14 (11745864_x_at) / Fold change /veh SAMD14 (11745864_x_at) / RFU NPB (11741838_a_at) / Fold change /veh NPB (11741838_a_at) / RFU TMPRSS6 (11731388_a_at) / Fold change /veh TMPRSS6 (11731388_a_at) / RFU KRTAP10-2 (11738614_at) / Fold change /veh KRTAP10-2 (11738614_at) / RFU ARHGAP8 /// PRR5-ARHGAP8 (11727945_x_at) / Fold change /veh ARHGAP8 /// PRR5-ARHGAP8 (11727945_x_at) / RFU KRTAP5-7 /// NADSYN1 (11734609_at) / Fold change /veh KRTAP5-7 /// NADSYN1 (11734609_at) / RFU RASL12 (11751679_a_at) / Fold change /veh RASL12 (11751679_a_at) / RFU CDKN2B (11736163_a_at) / Fold change /veh CDKN2B (11736163_a_at) / RFU PRF1 (11729649_at) / Fold change /veh PRF1 (11729649_at) / RFU, ZNF638 /// ZNF638-IT1 / Fold change vs veh, ZNF638 /// ZNF638-IT1 / RFU, PANK3 / Fold change vs veh, PANK3 / RFU, SH3YL1 / Fold change vs veh, SH3YL1 / RFU, ZEB2 / Fold change vs veh, ZEB2 / RFU, NRIP1 / Fold change vs veh, NRIP1 / RFU, PTTG1IP / Fold change vs veh, PTTG1IP / RFU, CAPN2 / Fold change vs veh, CAPN2 / RFU, MED14 / Fold change vs veh, MED14 / RFU, SNORA58 / Fold change vs veh, SNORA58 / RFU, C1orf63 / Fold change vs veh, C1orf63 / RFU, LRRFIP1 / Fold change vs veh, LRRFIP1 / RFU, NDUFAF7 / Fold change vs veh, NDUFAF7 / RFU, SLC12A2 / Fold change vs veh, SLC12A2 / RFU, IBTK / Fold change vs veh, IBTK / RFU, ESF1 / Fold change vs veh, ESF1 / Fold change vs veh, TMEM50B / RFU, TAOK1 / Fold change vs veh, TAOK1 / RFU, ACBD3 / Fold change vs veh, ACBD3 / RFU, TMA16 / Fold change vs veh, TMA16 / RFU, RWDD3 / Fold change vs veh, RWDD3 / RFU, BCAT1 / Fold change vs veh, BCAT1 / RFU, EDEM3 / Fold change vs veh, EDEM3 / RFU, TMEM33 / Fold change vs veh, TMEM33 / RFU, WDR75 / Fold change vs veh, WDR75 / RFU, AHCTF1 / Fold change vs veh, AHCTF1 / RFU, TFRC / Fold change vs veh, TFRC / RFU, ZDHHC17 / Fold change vs veh, ZDHHC17 / RFU, NOM1 / Fold change vs veh, NOM1 / RFU, ARL8B / Fold change vs veh, ARL8B / RFU, ZBTB11 / Fold change vs veh, ZBTB11 / RFU, TAMM41 / Fold change vs veh, TAMM41 / RFU, KIAA1704 /// LOC100996395 / Fold change vs veh, KIAA1704 /// LOC100996395 / RFU, ING1 / Fold change vs veh, ING1 / RFU, TRMT61B / Fold change vs veh, TRMT61B / RFU, FUBP3 / Fold change vs veh, FUBP3 / RFU, TP53 / Fold change vs veh, TP53 / RFU, TNKS2 / Fold change vs veh, TNKS2 / RFU, ZFP14 / Fold change vs veh, ZFP14 / RFU, ACTR2 / Fold change vs veh, ACTR2 / RFU, PPP3R1 / Fold change vs veh, PPP3R1 / RFU, PIK3R1 / Fold change vs veh, PIK3R1 / RFU, HNRNPA1 / Fold change vs veh, HNRNPA1 / RFU, RNF170 / Fold change vs veh, RNF170 / RFU, ZNF28 / Fold change vs veh, ZNF28 / RFU, RNGTT / Fold change vs veh, RNGTT / RFU, OGT / Fold change vs veh, OGT / RFU, BRD1 / Fold change vs veh, BRD1 / RFU, MARS / Fold change vs veh, MARS / RFU, ZNF655 / Fold change vs veh, ZNF655 / RFU, FAHD1 / Fold change vs veh, FAHD1 / RFU, BDP1 / Fold change vs veh, BDP1 / RFU, LRRCC1 / Fold change vs veh, LRRCC1 / RFU, ARID1A / Fold change vs veh, ARID1A / RFU, ZNF146 / Fold change vs veh, ZNF146 / RFU, ZNF330 / Fold change vs veh, ZNF330 / RFU, GPN3 / Fold change vs veh, GPN3 / RFU, C9orf123 / Fold change vs veh, C9orf123 / RFU, N4BP2L2 / Fold change vs veh, N4BP2L2 / RFU, ARFIP1 / Fold change vs veh, ARFIP1 / RFU, FAM179B / Fold change vs veh, FAM179B / RFU, BCL10 / Fold change vs veh, BCL10 / RFU, UHRF1BP1L / Fold change vs veh, UHRF1BP1L / RFU, BET1 / Fold change vs veh, BET1 / RFU, CNOT2 / Fold change vs veh, CNOT2 / RFU, ZNF268 / Fold change vs veh, ZNF268 / Fold change vs veh, ZNF507 / RFU, DGCR2 / Fold change vs veh, DGCR2 / RFU, WDSUB1 / Fold change vs veh, WDSUB1 / Fold change vs veh, HSP90B1 /// MIR3652 / RFU, ADSS / Fold change vs veh, ADSS / RFU, GK / Fold change vs veh, GK / RFU, ZNF148 / Fold change vs veh, ZNF148 / RFU, TAF9 / Fold change vs veh, TAF9 / RFU, SLC1A5 / Fold change vs veh, SLC1A5 / RFU, SLMO2 / Fold change vs veh, SLMO2 / RFU, ABCC4 / Fold change vs veh, ABCC4 / RFU, LOC101060439 /// RAP1B / Fold change vs veh, LOC101060439 /// RAP1B / RFU, RFX7 / Fold change vs veh, RFX7 / RFU, GTPBP10 / Fold change vs veh, GTPBP10 / RFU, CNEP1R1 / Fold change vs veh, CNEP1R1 / RFU, BIVM-ERCC5 /// ERCC5 / Fold change vs veh, BIVM-ERCC5 /// ERCC5 / RFU, ILF3 / Fold change vs veh, ILF3 / RFU 11762660_at / Fold change /veh 11762660_at / RFU VCAN (11757783_s_at) / Fold change /veh VCAN (11757783_s_at) / RFU DDX43 (11728927_at) / Fold change /veh DDX43 (11728927_at) / RFU KRT8 (11758188_x_at) / Fold change /veh KRT8 (11758188_x_at) / RFU NKD1 (11759106_at) / Fold change /veh NKD1 (11759106_at) / RFU SRD5A1 (11742802_a_at) / Fold change /veh SRD5A1 (11742802_a_at) / RFU TPSAB1 /// TPSB2 (11721975_s_at) / Fold change /veh TPSAB1 /// TPSB2 (11721975_s_at) / RFU GSTM3 (11746129_a_at) / Fold change /veh GSTM3 (11746129_a_at) / RFU IL23R (11737362_x_at) / Fold change /veh IL23R (11737362_x_at) / RFU TMEM51 (11727254_a_at) / Fold change /veh TMEM51 (11727254_a_at) / RFU PIWIL2 (11732686_x_at) / Fold change /veh PIWIL2 (11732686_x_at) / RFU ORM1 (11744905_x_at) / Fold change /veh ORM1 (11744905_x_at) / RFU CCDC152 (11743942_at) / Fold change /veh CCDC152 (11743942_at) / RFU ECM1 (11717891_a_at) / Fold change /veh ECM1 (11717891_a_at) / RFU IL23R (11748794_a_at) / Fold change /veh IL23R (11748794_a_at) / RFU TNFAIP8L3 (11732012_x_at) / Fold change /veh TNFAIP8L3 (11732012_x_at) / RFU MBOAT4 (11741988_at) / Fold change /veh MBOAT4 (11741988_at) / RFU 11764193_at / Fold change /veh 11764193_at / RFU TMEM53 (11763286_at) / Fold change /veh TMEM53 (11763286_at) / RFU MAGEB2 (11727129_at) / Fold change /veh MAGEB2 (11727129_at) / RFU TMEM200A (11744735_a_at) / Fold change /veh TMEM200A (11744735_a_at) / RFU CCDC152 (11751479_a_at) / Fold change /veh CCDC152 (11751479_a_at) / RFU FAM211A (11726209_a_at) / Fold change /veh FAM211A (11726209_a_at) / RFU RGS16 (11746705_a_at) / Fold change /veh RGS16 (11746705_a_at) / RFU VCAN (11755009_s_at) / Fold change /veh VCAN (11755009_s_at) / RFU RHOB (11743442_s_at) / Fold change /veh RHOB (11743442_s_at) / RFU RGS16 (11720943_a_at) / Fold change /veh RGS16 (11720943_a_at) / RFU RGS16 (11720944_at) / Fold change /veh RGS16 (11720944_at) / RFU, VPS4B / Fold change vs veh, VPS4B / RFU, CREB1 / Fold change vs veh, CREB1 / RFU, DNAJC13 / Fold change vs veh, DNAJC13 / RFU, GNAQ / Fold change vs veh, GNAQ / RFU, CDK5R1 / Fold change vs veh, CDK5R1 / RFU, ZRANB3 / Fold change vs veh, ZRANB3 / RFU, CUL4A / Fold change vs veh, CUL4A / RFU, CCNY / Fold change vs veh, CCNY / RFU, UFL1 / Fold change vs veh, UFL1 / RFU, COG3 / Fold change vs veh, COG3 / RFU, DIAPH2 / Fold change vs veh, DIAPH2 / RFU, SKA2 / Fold change vs veh, SKA2 / RFU, AFF3 / Fold change vs veh, AFF3 / RFU, LMF1 / Fold change vs veh, LMF1 / RFU, IPO11 / Fold change vs veh, IPO11 / RFU, DFFB / Fold change vs veh, DFFB / RFU, FOXP1 / Fold change vs veh, FOXP1 / RFU, CARD8 / Fold change vs veh, CARD8 / RFU, STRN3 / Fold change vs veh, STRN3 / RFU, ADK / Fold change vs veh, ADK / RFU, RASSF2 / Fold change vs veh, RASSF2 / RFU, WIPF1 / Fold change vs veh, WIPF1 / RFU, LARP1B / Fold change vs veh, LARP1B / RFU, RASA1 / Fold change vs veh, RASA1 / RFU, RB1 / Fold change vs veh, RB1 / RFU, PPFIA1 / Fold change vs veh, PPFIA1 / RFU, MAT2A / Fold change vs veh, MAT2A / RFU, CCT5 / Fold change vs veh, CCT5 / RFU, WDR92 / Fold change vs veh, WDR92 / RFU, CUX1 / Fold change vs veh, CUX1 / RFU, TTC7A / Fold change vs veh, TTC7A / RFU, TMEM135 / Fold change vs veh, TMEM135 / RFU, DEPTOR / Fold change vs veh, DEPTOR / RFU, CPM / Fold change vs veh, CPM / RFU, DNAJB6 / Fold change vs veh, DNAJB6 / RFU, CACNA2D3 / Fold change vs veh, CACNA2D3 / RFU, DTX4 / Fold change vs veh, DTX4 / RFU, TFCP2 / Fold change vs veh, TFCP2 / RFU, GMCL1 /// GMCL1P1 / Fold change vs veh, GMCL1 /// GMCL1P1 / RFU, AEBP2 / Fold change vs veh, AEBP2 / RFU, SNHG1 /// SNORD22 /// SNORD25 /// SNORD26 /// SNORD27 /// SNORD28 /// SNORD29 /// SNORD31 / Fold change vs veh, SNHG1 /// SNORD22 /// SNORD25 /// SNORD26 /// SNORD27 /// SNORD28 /// SNORD29 /// SNORD31 / Fold change (Aza/veh), C12orf56 (ProbeSet 11735607_a_at) / Fold change (ACY-1035/veh), C12orf56 (ProbeSet 11735607_a_at) / Fold change (Aza/veh), FGFR1OP (ProbeSet 11751329_s_at) / Fold change (ACY-1035/veh), FGFR1OP (ProbeSet 11751329_s_at) / Fold change (Aza/veh), VPS36 (ProbeSet 11739960_a_at) / Fold change (ACY-1035/veh), VPS36 (ProbeSet 11739960_a_at) / RFU SYPL1 (11715823_x_at) / Fold change /veh SYPL1 (11715823_x_at) / RFU IGFBP7 (11715501_s_at) / Fold change /veh IGFBP7 (11715501_s_at) / RFU REEP3 (11722064_at) / Fold change /veh REEP3 (11722064_at) / RFU IGLL1 (11728026_x_at) / Fold change /veh IGLL1 (11728026_x_at): dose or concentration left out as unconfirmed
Conditions: ProbeSet 11716844_s_at; LIST D

Nc1ccc(-c2cccs2)cc1NC(=O)c1ccc2c(c1)cc(C1CC1)n2CCN1CCOCC1 [ACY-1035]
Fold change vs veh, DNAJC13: 0.91
